pKd: −log10 of the molar value.

Chain of Somatostatin receptor type 2 (Mus musculus) (P30875 whole entry): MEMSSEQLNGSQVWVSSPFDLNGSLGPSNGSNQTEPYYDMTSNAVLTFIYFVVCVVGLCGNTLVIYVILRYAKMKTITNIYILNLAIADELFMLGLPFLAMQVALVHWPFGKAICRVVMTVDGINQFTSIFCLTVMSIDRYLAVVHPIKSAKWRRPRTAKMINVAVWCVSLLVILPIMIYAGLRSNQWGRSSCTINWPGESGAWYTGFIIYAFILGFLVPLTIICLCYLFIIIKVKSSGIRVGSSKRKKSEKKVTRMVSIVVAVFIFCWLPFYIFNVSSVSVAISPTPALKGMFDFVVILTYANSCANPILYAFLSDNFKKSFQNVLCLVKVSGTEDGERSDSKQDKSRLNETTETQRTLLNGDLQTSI

For the first data set, the target named is T1, Albumin (Homo sapiens, UniProt P02768). The data set can be described thus: Binding affinity to human serum albumin assessed as dissociation constant and measured after 5 mins by fluorescence based competition assay.
T1 sequence (P02768 whole entry): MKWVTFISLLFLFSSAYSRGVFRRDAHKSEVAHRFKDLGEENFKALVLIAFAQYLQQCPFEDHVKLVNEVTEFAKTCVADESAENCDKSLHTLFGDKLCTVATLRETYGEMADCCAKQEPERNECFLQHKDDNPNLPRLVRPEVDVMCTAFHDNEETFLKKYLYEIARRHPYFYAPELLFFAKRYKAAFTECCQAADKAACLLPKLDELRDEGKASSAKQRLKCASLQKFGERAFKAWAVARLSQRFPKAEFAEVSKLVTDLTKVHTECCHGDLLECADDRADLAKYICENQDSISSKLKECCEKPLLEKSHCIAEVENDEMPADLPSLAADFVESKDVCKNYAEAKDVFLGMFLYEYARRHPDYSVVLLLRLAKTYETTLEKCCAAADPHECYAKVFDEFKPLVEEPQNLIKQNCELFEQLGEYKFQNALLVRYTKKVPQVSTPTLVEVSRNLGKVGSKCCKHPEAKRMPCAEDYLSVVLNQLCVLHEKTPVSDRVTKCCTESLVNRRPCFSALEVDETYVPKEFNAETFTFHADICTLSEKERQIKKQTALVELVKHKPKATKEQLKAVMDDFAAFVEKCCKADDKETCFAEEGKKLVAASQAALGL
Settings: not given
On to `[N-]=[N+]=Nc1ccc(C(=O)N[C@@H](CCCCNC(=O)CCCc2ccccc2)C(=O)O)cc1`, for which the negative-log Kd (pKd) (usually the negative decadic logarithm of the Kd, by convention in mol/L) was 4.44. On to `[N-]=[N+]=Nc1ccc(C(=O)N[C@@H](CCCCNC(=O)CCCc2ccc(C(F)(F)F)cc2)C(=O)O)cc1`, for which the pKd is 5.39.

Turning to `CC(=O)N[C@@H](CCCCNC(=O)CCCc1ccc(I)cc1)C(N)=O`, the pKd is 4.15. For `CC(=O)N[C@@H](CCCCNC(=O)CCCc1ccc(I)cc1)C(=O)O`, the pKd was 5.49.

Consider `[N-]=[N+]=Nc1ccc(C(=O)N[C@@H](CCCCNC(=O)CCCc2ccc(I)cc2)C(=O)O)cc1`, for which the negative logarithm of the Kd (pKd) is 6.44. Take `O=C(CCCc1ccc(I)cc1)NCCCC[C@H](C(=O)O)n1cc(-c2ccccc2)nn1`: the pKd is 5.40. Consider `CC(C)Cc1ccc(C(C)C(=O)NCCCC[C@H](NC(=O)c2ccc(N=[N+]=[N-])cc2)C(=O)O)cc1` (stereo not given in full), for which the negative logarithm of the Kd (pKd) is 5.40. On to `[N-]=[N+]=Nc1ccc(C(=O)N[C@@H](CCCCNC(=O)CCCc2ccc(Cl)cc2)C(=O)O)cc1`, for which the negative logarithm of the Kd (pKd) is 5.46. Turning to `[N-]=[N+]=Nc1ccc(C(=O)N[C@@H](CCCCNC(=O)CCCc2ccc(Br)cc2)C(=O)O)cc1`, the pKd is 5.70.

Regarding `[N-]=[N+]=NCCCCC(=O)N[C@H](CCCCNC(=O)CCCc1ccc(I)cc1)C(=O)O`, the pKd was 5.10. As to `COC(=O)[C@H](CCCCNC(=O)CCCc1ccc(I)cc1)NC(C)=O`, the pKd is 3.96.

Regarding `[N-]=[N+]=NCCCCC(=O)N[C@@H](CCCCNC(=O)CCCc1ccc(I)cc1)C(=O)O`, the pKd is 5.22. For `NC(=O)[C@H](CCC(=O)O)NC(=O)CCCc1ccc(I)cc1`, the pKd was 4.10. On the same count and under the same terms, in the case of `[N-]=[N+]=Nc1ccc(C(=O)N[C@H](CCCCNC(=O)CCCc2ccc(I)cc2)C(=O)O)cc1` it was 5.92. Regarding `[N-]=[N+]=Nc1ccc(C(=O)N[C@@H](CCCCNC(=O)CCCc2ccc(F)cc2)C(=O)O)cc1`, the pKd was 4.59. Take `Cc1ccc(CCCC(=O)NCCCC[C@H](NC(=O)c2ccc(N=[N+]=[N-])cc2)C(=O)O)cc1`: the negative-log Kd (pKd) was 5.52. The same measure, in the same setting: under `O=C(O)CN1CCN(CC(=O)O)CCN(C(CCC(=O)N[C@@H](CCCCNC(=O)CCCc2ccc(I)cc2)C(=O)O)C(=O)O)CC1` (stereo not given in full) stands 5.10; under `C#CCCC(=O)N[C@H](CCCCNC(=O)CCCc1ccc(I)cc1)C(=O)O`, 5.14; under `CC(=O)N[C@H](CCCCNC(=O)CCCc1ccc(I)cc1)C(=O)O`, 5.15. Regarding `C#Cc1ccc(C(=O)N[C@@H](CCCCNC(=O)CCCc2ccc(I)cc2)C(=O)O)cc1`, the pKd was 6.47. Regarding `NC(=O)[C@H](CC(=O)O)NC(=O)CCCc1ccc(I)cc1`, the negative logarithm of the Kd (pKd) is 4.00.

Another data set deals with T1, Albumin. As to the kind of experiment: Binding affinity to human serum albumin assessed as dissociation constant using N-alpha-(6-FAM)-N-epsilon-(4-Iodophenylbutanoyl)-D-lysine as substrate and measured after 5 mins by fluorescence based competition assay.
Settings: not given
In the case of `O=C(CCCc1ccc(I)cc1)NCCCC[C@@H](NC(=O)c1ccc(C(=O)O)c(-c2c3ccc(=O)cc-3oc3cc(O)ccc23)c1)C(=O)O`, the pKd was 6.64.

Another data set addresses T1, Albumin. As to the kind of experiment: Binding affinity to human serum albumin assessed as dissociation constant and measured after 5 mins by MST assay.
Settings: not given
`[N-]=[N+]=Nc1ccc(C(=O)N[C@H](CCCCNC(=O)CCCc2ccc(I)cc2)C(=O)O)cc1`: the pKd was 5.59.

As for `CC(=O)N[C@H](CCCCNC(=O)CCCc1ccc(I)cc1)C(=O)O`, the pKd was 5.10.

Another data set concerns the target T1, Albumin. The data set can be described thus: Binding affinity to human serum albumin assessed as dissociation constant by isothermal titration calorimetry.
Settings: not given
Turning to `CC(=O)N[C@@H](CCCCNC(=O)CCCc1ccc(I)cc1)C(=O)O`, the negative logarithm of the Kd (pKd) was 5.05. Take `CC(=O)N[C@H](CCCCNC(=O)CCCc1ccc(I)cc1)C(=O)O`: the pKd was 5.49.

System in another data set: not listed separately
The data set can be described thus: Lipophilicity, logD of compound at pH 7.4 under shaking condition by HPLC analysis. The note with it: buffer. It is filed as physicochemical.
With `[N-]=[N+]=Nc1ccc(C(=O)N[C@@H](CCCCNC(=O)CCCc2ccc(I)cc2)C(=O)O)cc1`, the log distribution coefficient (logD) (as a rule, the decadic logarithm of the distribution of all forms, ionised or not, between an organic phase and buffer at a given pH) was 1.75. `[N-]=[N+]=Nc1ccc(C(=O)N[C@@H](CCCCNC(=O)CCCc2ccc(I)cc2)C(N)=O)cc1` had a logD of 3.13.

A further data set addresses Somatostatin receptor type 2 (Mus musculus) (UniProt P30875). As to the kind of experiment: Binding affinity to mouse SST2 expressed in mouse pheochromocytoma cells assessed as maximum binding capacity for 1 hr by Nanodrop spectrophotometric analysis. The conditions noted are these: Pheochromocytoma cell. The data set is classed as cell-based.
As for [64Cu]Cu-DOTA-TATE, the Bmax stood at 779 fmol/mg.

For [64Cu]Cu-NODAGA-TATE, the Bmax is 383 fmol/mg.

Source of the values: ChEMBL document CHEMBL5042503, “"Clickable" Albumin Binders for Modulating the Tumor Uptake of Targeted Radiopharmaceuticals” (J Med Chem, 2022).
